Assay results as given in ChEMBL document CHEMBL3228042, “Stereochemical aspects of the metabolism of 5-(4'-fluorophenyl)-5-phenylhydantoin in the rat” (J Med Chem, 1979).

Assays:
Type in all cases: ADME, organism-based
Settings in all cases: in vivo
[1] = Drug metabolism in ip dosed Wistar rat assessed as 3'-O-methyl derivative level in urine up to 96 hrs by GC-MS analysis
[2] = Drug metabolism in ip dosed Wistar rat assessed as 5-(4'-fluorophenyl)-5-(4'-hydroxyphenyl)hydantoin level in urine up to 96 hrs by GC-MS analysis
[3] = Drug metabolism in ip dosed Wistar rat assessed as […] level in urine up to 96 hrs by GC-MS analysis
[4] = Drug metabolism in ip dosed Wistar rat assessed as (R,S)-5-(3',4'-dimethoxyphenyl)-5-(4'-fluorophenyl)hydantoin level in urine up to 96 hrs by GC-MS analysis
[5] = Drug metabolism in ip dosed Wistar rat assessed as 5-(3',4'-dihydroxyphenyl)-5-(4'-fluorophenyl)hydantoin level in urine up to 96 hrs by GC-MS analysis
[6] = Drug metabolism in ip dosed Wistar rat assessed as (R)-(-)-5-(4'-fluorphenyl)-5-(4'-hydroxyphenyl)hydantoin level in urine up to 96 hrs by TLC analysis

Row | Drug metabolism [1] | Drug metabolism [2] | Drug metabolism [3] | Drug metabolism [4] | Drug metabolism [5] | Drug metabolism [6] | Compound
1 | metabolite_detected | metabolite_detected | metabolite_detected | metabolite_detected | metabolite_detected |  | O=C1NC(=O)C(c2ccccc2)(c2ccc(F)cc2)N1 (stereo unspecified)
2 | metabolite_detected | metabolite_detected | metabolite_detected | metabolite_detected | metabolite_detected |  | O=C1[N-]C(=O)C(c2ccccc2)(c2ccc(F)cc2)N1.[Na+] (racemic)
3 |  |  |  |  |  | metabolite_detected | O=C1NC(=O)C(c2ccc(O)cc2)(c2ccc(F)cc2)N1 (racemic)
